Data reported in patent publication US8148391B2 (Cephalon, Inc., priority 2006, dated 2012).
Like-named read-outs stand apart in the source and are kept apart here.

Columns and labels:
[1] = biological target: T1, c-Met (cytoplasmic domain) (Homo sapiens, UniProt P08581); assay: c-Met Kinase Assay (same methods as for ALK, with modifications); assay type: biochemical
T1 construct: 10 ng/mL c-Met (cytoplasmic domain, Invitrogen Corporation #PV3143); purchased Invitrogen Corporation PV3143
In short: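 Steps: coat wells with PLC-γ (10 μg/mL, Tris-buffered saline); add 10 ng/mL c-Met cytoplasmic domain to initiate; incubate 15 min, 37° C; detect phosphoproduct via Eu-N1 PT66 antibody.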

[2] = biological target: T2, baculovirus-expressed ALK (Homo sapiens, UniProt Q9UM73); assay: ALK Kinase Assay (ELISA-type, time-resolved fluorescence); assay type: biochemical
T2 construct: host or cells: baculovirus expression system
In short: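 Wells were coated with phospholipase C-γ at 10 μg/mL in Tris-buffered saline. Adding 30 ng/ml enzyme started the reaction, which ran at 37° C for 15 minutes before Eu-N1 PT66 antibody detection. Percent inhibition versus log10 concentration gave IC50 by variable-slope fit.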

[3] = c-Met kinase inhibition, 1 μM ATP (Km level), read-out: cMet Activity
[4] = ALK kinase inhibition, 1 μM ATP (Km level), read-out: ALK Activity
[5] = c-Met kinase inhibition, 1 μM ATP, read-out: cMet Activity
[6] = ALK kinase inhibition, 1 μM ATP, read-out: ALK Activity
[7] = 1 μM ATP (Km level), read-out: cMet Activity (c-Met Kinase Inhibition, IC50)
[8] = 1 μM ATP (Km level), read-out: ALK Activity (ALK Kinase Inhibition, IC50)
[9] = 1 μM ATP (Km level), 10 ng/mL c-Met, read-out: cMet Activity (c-Met kinase inhibition, IC50 class)
[10] = 1 μM ATP (Km level), 30 ng/ml ALK, 37° C., 15 minutes, read-out: ALK Activity (ALK kinase inhibition, IC50 class)

T2 sequence (Q9UM73 19-1620): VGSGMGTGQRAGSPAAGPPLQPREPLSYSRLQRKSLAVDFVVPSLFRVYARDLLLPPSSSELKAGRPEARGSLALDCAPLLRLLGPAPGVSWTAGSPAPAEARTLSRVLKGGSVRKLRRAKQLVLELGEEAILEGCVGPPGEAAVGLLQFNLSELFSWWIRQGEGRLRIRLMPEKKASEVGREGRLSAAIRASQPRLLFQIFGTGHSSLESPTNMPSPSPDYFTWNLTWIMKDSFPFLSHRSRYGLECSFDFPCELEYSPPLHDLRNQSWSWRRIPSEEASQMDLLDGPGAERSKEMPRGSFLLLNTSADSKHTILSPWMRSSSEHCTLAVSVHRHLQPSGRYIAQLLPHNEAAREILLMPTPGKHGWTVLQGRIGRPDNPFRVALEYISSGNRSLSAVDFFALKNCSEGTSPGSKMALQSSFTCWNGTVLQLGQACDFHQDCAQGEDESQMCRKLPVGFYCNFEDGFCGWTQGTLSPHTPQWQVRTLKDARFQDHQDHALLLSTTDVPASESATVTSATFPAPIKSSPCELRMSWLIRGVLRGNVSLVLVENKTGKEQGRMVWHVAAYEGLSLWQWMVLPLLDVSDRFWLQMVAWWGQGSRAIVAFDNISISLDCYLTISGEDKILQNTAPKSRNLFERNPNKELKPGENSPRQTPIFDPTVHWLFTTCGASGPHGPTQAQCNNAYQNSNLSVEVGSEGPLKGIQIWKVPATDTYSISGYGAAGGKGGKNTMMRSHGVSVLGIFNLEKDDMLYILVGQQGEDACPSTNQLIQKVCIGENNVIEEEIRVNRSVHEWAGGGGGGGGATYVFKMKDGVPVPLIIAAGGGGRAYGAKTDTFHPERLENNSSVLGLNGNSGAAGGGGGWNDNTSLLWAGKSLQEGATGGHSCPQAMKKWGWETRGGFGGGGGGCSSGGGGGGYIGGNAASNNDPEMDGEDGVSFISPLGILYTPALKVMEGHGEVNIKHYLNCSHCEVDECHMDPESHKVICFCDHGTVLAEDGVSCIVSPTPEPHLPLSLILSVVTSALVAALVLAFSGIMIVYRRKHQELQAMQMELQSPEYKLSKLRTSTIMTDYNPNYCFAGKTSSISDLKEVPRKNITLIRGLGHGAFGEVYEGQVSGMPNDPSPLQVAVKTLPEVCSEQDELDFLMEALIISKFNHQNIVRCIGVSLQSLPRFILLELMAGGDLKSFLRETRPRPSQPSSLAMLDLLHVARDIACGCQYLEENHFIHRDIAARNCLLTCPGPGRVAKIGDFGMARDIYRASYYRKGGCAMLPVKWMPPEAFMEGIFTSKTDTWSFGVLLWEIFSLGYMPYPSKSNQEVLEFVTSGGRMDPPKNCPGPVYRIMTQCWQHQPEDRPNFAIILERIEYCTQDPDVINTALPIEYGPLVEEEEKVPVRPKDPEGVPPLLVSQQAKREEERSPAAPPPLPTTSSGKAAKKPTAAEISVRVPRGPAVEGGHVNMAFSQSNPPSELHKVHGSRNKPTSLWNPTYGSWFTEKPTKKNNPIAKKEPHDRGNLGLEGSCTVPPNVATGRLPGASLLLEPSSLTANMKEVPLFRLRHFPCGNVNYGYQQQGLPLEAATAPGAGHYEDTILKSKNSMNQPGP
T1 sequence (P08581 956-1390 limits assumed): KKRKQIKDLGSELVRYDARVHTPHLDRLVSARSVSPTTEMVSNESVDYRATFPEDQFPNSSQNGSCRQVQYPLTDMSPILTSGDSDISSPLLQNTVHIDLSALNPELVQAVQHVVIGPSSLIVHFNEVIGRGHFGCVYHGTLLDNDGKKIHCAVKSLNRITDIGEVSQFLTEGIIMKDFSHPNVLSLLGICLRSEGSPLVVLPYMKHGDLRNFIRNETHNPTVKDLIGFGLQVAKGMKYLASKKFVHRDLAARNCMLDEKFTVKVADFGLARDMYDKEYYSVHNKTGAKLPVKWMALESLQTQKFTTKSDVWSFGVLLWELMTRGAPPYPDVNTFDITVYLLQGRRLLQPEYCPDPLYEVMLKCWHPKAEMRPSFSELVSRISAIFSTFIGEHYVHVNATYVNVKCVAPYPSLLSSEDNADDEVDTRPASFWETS

Which IC50 [1, 3] does the source give for CNS(=O)(=O)c1ccccc1Nc1nc(Nc2ccc3c(c2)CCN(S(C)(=O)=O)CC3)ncc1Cl [Example 43, 2-[5-Chloro-2-(3-methanesulfonyl-2,3,4,5-tetrahydro-1H-benzo[d]azepin-7-ylamino)-pyrimidin-4-ylamino]-N-methyl-benzenesulfonamide] here?
The IC50 was under 100 nM.

What about the IC50 [2, 4] of the same molecule?
Its IC50 is under 100 nM.

For COCCOc1cccc(F)c1Nc1nc(Nc2ccc3c(c2)CCN(CCOC)CC3)ncc1Cl [Example 1696, 5-Chloro-N*4*-[2-fluoro-6-(2-methoxy-ethoxy)-phenyl]-N*2*-[3-(2-methoxy-ethyl)-2,3,4,5-tetrahydro-1H-benzo[d]azepin-7-yl]-pyrimidine-2,4-diamine], which IC50 [1, 5] is on record?
Its IC50 is 100 to 1000 nM.

What about the IC50 [2, 6] of the same molecule?
Its IC50 is under 100 nM.

COc1cc2c(cc1Nc1ncc(Cl)c(N[C@@H]3CCCC[C@H]3NS(C)(=O)=O)n1)NC(=O)CN(C(C)=O)C2 [Example 1657, N-{(1R,2R)-2-[2-(4-Acetyl-7-methoxy-2-oxo-2,3,4,5-tetrahydro-1H-benzo[e][1,4]di-azepin-8-ylamino)-5-chloro-pyrimidin-4-ylamino]-cyclohexyl}-methanesulfonamide] was tested. Which IC50 [1, 5] did it give?
The IC50 was over 10000 nM.

And the IC50 [2, 6]?
The IC50 was under 100 nM.

With COc1cc2c(cc1Nc1ncc(Cl)c(N[C@H]3[C@@H](C(N)=O)[C@@H]4C=C[C@H]3C4)n1)N(C)C(=O)CN(CC#N)C2 [Example 744, (1S,2S,3R,4R)-3 [5-Chloro-2-(4-cyanomethyl-7-methoxy-1-methyl-2-oxo-2,3,4,5-tetrahydro-1H-benzo[e][1,4]diazepin-8-ylamino)-pyrimidin-4-ylamino]-bicyclo(2.2.1)hept-5-ene-2-carboxylic acid amide] as the molecule, how does the IC50 [1, 7] read?
The IC50 was over 10000 nM.

And the IC50 [2, 8]?
The IC50 was 100 to 1000 nM.

How did the IC50 [1, 7] turn out when COc1cc(N2CCN(C)CC2)ccc1Nc1nc(Nc2cccc3c2OCCCC3(C)C)ncc1Cl [Example 872, 5-Chloro-N*2*-(5,5-dimethyl-2,3,4,5-tetrahydro-benzo[b]oxepin-9-yl)-N*4*-[2-methoxy-4-(4-methyl-piperazin-1-yl)-phenyl]-pyrimidine-2,4-diamine] was run?
Its IC50 is over 10000 nM.

And the IC50 [2, 8]?
The IC50 was under 100 nM.

With CNC(=O)c1cccc(F)c1Nc1nc(Nc2ccc3c(c2)NC(=O)CCO3)ncc1Cl [Example 1221, 2-[5-Chloro-2-(8-oxo-6,7,8,9-tetrahydro-5-oxa-9-aza-benzocyclohepten-2-ylamino)-pyrimidin-4-ylamino]-3-fluoro-N-methyl-benzamide] as the molecule, how does the IC50 [1, 9] read?
The IC50 was under 100 nM.

And the IC50 [2, 10]?
Its IC50 is 100 to 1000 nM.

How did the IC50 [1, 3] turn out when CCN1C(=O)OCCc2ccc(Nc3ncc(Cl)c(Nc4ccccc4C(=O)NC)n3)cc21 [Example 1881, 2-[5-Chloro-2-(5-ethyl-6-oxo-5,6,8,9-tetrahydro-7-oxa-5-aza-benzocyclohepten-3-ylamino)-pyrimidin-4-ylamino]-N-methyl-benzamide] was run?
The IC50 was 100 to 1000 nM.

What about the IC50 [2, 4] of the same molecule?
The IC50 was 100 to 1000 nM.

How did the IC50 [1, 9] turn out when COCCN1CCc2cc(Nc3ncc(Cl)c(NC4(C(=O)NCC#N)CC4)n3)c(OC)cc2CC1 [Example 1197, 1-{5-Chloro-2-[8-methoxy-3-(2-methoxy-ethyl)-2,3,4,5-tetrahydro-1H-benzo[d]azepin-7-ylamino]-pyrimidin-4-ylamino}-cyclopropanecarboxylic acid cyanomethyl-amide] was run?
The IC50 was over 10000 nM.

What about the IC50 [2, 10] of the same molecule?
Its IC50 is 1000 to 10000 nM.

What does the source list for CCN1CCN(CC)c2cc(Nc3ncc(Cl)c(Nc4ccccc4NS(C)(=O)=O)n3)c(Cl)cc2C1 [Example 431, N-{2-[5-Chloro-2-(7-chloro-1,4-diethyl-2,3,4,5-tetrahydro-1H-benzo[e][1,4]diazepin-8-ylamino)-pyrimidin-4-ylamino]-phenyl}-methanesulfonamide]?
IC50 [1, 3]: 1000 to 10000 nM; IC50 [2, 4]: < 100 nM

What does the source list for CNC(=O)c1ccccc1Nc1nc(Nc2ccc3c(c2)N(C)CCN(C)C3=O)ncc1Cl [Example 413, 2-[5-Chloro-2-(1,4-dimethyl-5-oxo-2,3,4,5-tetrahydro-1H-benzo[e][1,4]diazepin-8-ylamino)-pyrimidin-4-ylamino]-N-methylbenzamide]?
IC50 [1, 3]: < 100 nM; IC50 [2, 4]: < 100 nM

For CCN1CCc2ccc(Nc3ncc(Cl)c(NC4CCCCNC4=O)n3)cc2CC1 (stereo not drawn) [Example 166, 3-[5-Chloro-2-(3-ethyl-2,3,4,5-tetrahydro-1H-benzo[d]azepin-7-ylamino)-pyrimidin-4-ylamino]-azepan-2-one], which IC50 [1, 3] is on record?
Its IC50 is 1000 to 10000 nM.

What about the IC50 [2, 4] of the same molecule?
Its IC50 is under 100 nM.

Which IC50 [1, 5] does the source give for C#CCNC(=O)c1sccc1Nc1nc(Nc2ccc3c(c2)CCOC(=O)N3C)ncc1Cl [Example 1760, 3-[5-Chloro-2-(5-methyl-6-oxo-5,6,8,9-tetrahydro-7-oxa-5-aza-benzocyclohepten-2-ylamino)-pyrimidin-4-ylamino]-thiophene-2-carboxylic acid prop-2-ynylamide] here?
The IC50 was under 100 nM.

And the IC50 [2, 6]?
Its IC50 is 100 to 1000 nM.

Which IC50 [1, 9] does the source give for CN(C)C(=O)CN1CCc2ccc(Nc3ncc(Cl)c(N[C@@H]4CCCC[C@H]4NS(C)(=O)=O)n3)cc2CC1 [Example 1371, 2-{7-[5-Chloro-4-((1R,2R)-2-methanesulfonylamino-cyclohexylamino)-pyrimidin-2-ylamino]-1,2,4,5-tetrahydro-benzo[d]azepin-3-yl}-N,N-dimethyl-acetamide] here?
Its IC50 is 100 to 1000 nM.

And the IC50 [2, 10]?
Its IC50 is under 100 nM.

How did the IC50 [1, 7] turn out when “5-Chloro-N*4*-(2-ethyl-4-morpholin-4-yl-phenyl)-N*2*-[7-(2,2,2-trifluoro-ethylamino)-6,7,8,9-tetrahydro-5H-benzocyclohepten-2-yl]-pyrimidine-2,4-diamine [Example 652]” was run?
The IC50 was over 10000 nM.

What about the IC50 [2, 8] of the same molecule?
The IC50 was under 100 nM.

Which results are given for CC(C)NC(=O)c1ccccc1Nc1nc(Nc2ccc3c(c2)C(C)(C)CCC(=O)N3)ncc1Cl [Example 340]?
IC50 [1, 3]: 100 to 1000 nM; IC50 [2, 4]: < 100 nM

Which IC50 [1, 5] does the source give for CNC(=O)c1ccc2c(c1Nc1nc(Nc3ccc4c(c3)NC(=O)CCC4)ncc1Cl)OCO2 [Example 1482, 4-[5-Chloro-2-(2-oxo-2,3,4,5-tetrahydro-1H-benzo[b]azepin-8-ylamino)-pyrimidin-4-ylamino]-benzo[1,3]dioxole-5-carboxylic acid methylamide] here?
Its IC50 is 1000 to 10000 nM.

And the IC50 [2, 6]?
Its IC50 is 100 to 1000 nM.

Which IC50 [1, 3] does the source give for COCCN1C(=O)CCCc2c1ccc(Nc1ncc(Cl)c(N[C@@H]3[C@H](C(N)=O)[C@H]4C=C[C@@H]3C4)n1)c2OC [Example 128, (2-exo,3-exo)-3-{5-Chloro-2-[6-methoxy-1-(2-methoxy-ethyl)-2-oxo-2,3,4,5-tetrahydro-1H-benzo[b]azepin-7-ylamino]-pyrimidin-4-ylamino}-bicyclo[2.2.1]hept-5-ene-2-carboxylic acid amide] here?
Its IC50 is over 10000 nM.

What about the IC50 [2, 4] of the same molecule?
Its IC50 is under 100 nM.

Which results are given for NC(=O)C1C2C=CC(C2)C1Nc1nc(Nc2ccc3c(c2)CCN(CC(O)C(F)(F)F)CC3)ncc1Cl (mixture of isomers) [Example 334, (2-exo, 3-exo)-3-{5-Chloro-2-[3-((R)-3,3,3-trifluoro-2-hydroxy-propyl)-2,3,4,5-tetrahydro-1H-benzo[d]azepin-7-ylamino]-pyrimidin-4-ylamino}-bicyclo[2.2.1]hept-5-ene-2-carboxylic acid amide]?
IC50 [1, 3]: 100 to 1000 nM; IC50 [2, 4]: < 100 nM

Which IC50 [1, 3] does the source give for CN1C(=O)CCCc2cc(Nc3ncc(Cl)c(Nc4ccccc4C(=O)NCCO)n3)ccc21 [Example 6, 2-[5-Chloro-2-(1-methyl-2-oxo-2,3,4,5-tetrahydro-1H-benzo[b]azepin-7-ylamino)-pyrimidin-4-ylamino]-N-(2-hydroxy-ethyl)-benzamide] here?
The IC50 was under 100 nM.

What about the IC50 [2, 4] of the same molecule?
Its IC50 is under 100 nM.

What does the source list for COCCOC(=O)c1ccccc1Nc1nc(Nc2cc3c(cc2OC)CCC(NCCO)CC3)ncc1Cl (stereo not drawn) [Example 1093, 2-{5-Chloro-2-[7-(2-hydroxy-ethylamino)-3-methoxy-6,7,8,9-tetrahydro-5H-benzocyclohepten-2-ylamino]-pyrimidin-4-ylamino}-benzoic acid 2-methoxy-ethyl ester]?
IC50 [1, 9]: > 10000 nM; IC50 [2, 10]: < 100 nM

How did the IC50 [1, 9] turn out when COCCN1CCc2ccc(Nc3ncc(Cl)c(Nc4c(C)cccc4C(=O)NCC#N)n3)cc2CC1 [Example 1040, 2-{5-Chloro-2-[3-(2-methoxy-ethyl)-2,3,4,5-tetrahydro-1H-benzo[d]azepin-7-ylamino]-pyrimidin-4-ylamino}-N-cyanomethyl-3-methyl-benzamide] was run?
Its IC50 is 100 to 1000 nM.

What about the IC50 [2, 10] of the same molecule?
Its IC50 is 100 to 1000 nM.

With COCCN1CCc2ccc(Nc3ncc(Cl)c(N[C@@H]4CCC[C@@H](NS(C)(=O)=O)C4)n3)cc2CC1 (relative stereo) [Example 1379, rel-N-((1R,3R)-3-{5-Chloro-2-[3-(2-methoxy-ethyl)-2,3,4,5-tetrahydro-1H-benzo[d]azepin-7-ylamino]-pyrimidin-4-ylamino}-cyclohexyl)-methanesulfonamide] as the molecule, how does the IC50 [1, 9] read?
Its IC50 is 1000 to 10000 nM.

What about the IC50 [2, 10] of the same molecule?
Its IC50 is 1000 to 10000 nM.

Which results are given for CNC(=O)c1ccsc1Nc1nc(Nc2ccc3c(c2)CCCC(=O)N3C)ncc1Cl [Example 1487, 2-[5-Chloro-2-(1-methyl-2-oxo-2,3,4,5-tetrahydro-1H-benzo[b]azepin-7-ylamino)-pyrimidin-4-ylamino]-thiophene-3-carboxylic acid methylamide]?
IC50 [1, 5]: 100 to 1000 nM; IC50 [2, 6]: 100 to 1000 nM

Which results are given for COCC(COC)N1CCc2cc(Nc3ncc(Cl)c(Nc4ccc(N5CCOCC5)cc4OC)n3)c(OC)cc2CC1 [Example 814, 5-Chloro-N*2*-[8-methoxy-3-(2-methoxy-1-methoxymethyl-ethyl)-2,3,4,5-tetrahydro-1H-benzo[d]azepin-7-yl]-N*4*-(2-methoxy-4-morpholin-4-yl-phenyl)-pyrimidine-2,4-diamine]?
IC50 [1, 7]: > 10000 nM; IC50 [2, 8]: < 100 nM
